# Test results from patent US10633407B2, “14-membered ketolides and methods of their preparation and use” (President and Fellows of Harvard College, priority 2014, dated 2020).
# Experiments:
# Assay in all cases: CLSI broth dilution MIC determination
# Type in all cases: cell-based
# [1] = system: A. baumannii ATCC 19606; conditions: A. baumannii ATCC 19606; Gram-negative
# [2] = system: P. aeruginosa HPA101-1477; conditions: Gram-negative
# [3] = system: H. influenzae Erythro >4, Azithro 1; conditions: H. influenzae Erythro >4, Azithro 1; Gram-negative
# Excerpt: MIC data was collected for the novel macrolides that this platform has produced against over 21 unique strains of B. subtilis, E. coli, S. aureus, S. pneumoniae, and H. influenzae, including several multidrug-resistant strains, with a special focus on macrolide resistant mechanisms (vide supra). […] CLSI standard procedures for broth dilution MIC determination were used. […] These genotypes can be constitutive or inducible.
# [4] = system: S. pyogenes Macrolide-resistant; conditions: S. pyogenes Macrolide-resistant; Gram-positive
# [5] = system: E. faecalis ATCC 29212; conditions: E. faecalis ATCC 29212; Gram-positive
# [6] = system: P. aeruginosa ATCC 27853; conditions: P. aeruginosa ATCC 27853; Gram-negative
# [7] = system: K. pneumoniae KPC-2; conditions: Gram-negative
# [8] = system: A. baumannii chromosomal class C; conditions: Gram-negative
# [9] = system: S. pyogenes ATCC 19615; conditions: S. pyogenes ATCC 19615; Gram-positive
# [10] = system: A. baumannii IMP-4; conditions: Gram-negative
# [11] = system: A. baumannii imipenem-resistant; conditions: Gram-negative
# [12] = system: K. pneumoniae ATCC 10031; conditions: K. pneumoniae ATCC 10031; Gram-negative
# [13] = system: K. pneumoniae SHV-12; conditions: Gram-negative
# [14] = system: E. coli NDM-1; conditions: Gram-negative
# Method in brief: (§1)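 MICs measured following CLSI broth dilution methodology. The strains tested include macrolide-resistant and multidrug-resistant isolates whose resistance genotypes can be constitutive or inducible.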
# [15] = system: K. pneumoniae TEM-10; conditions: Gram-negative
# [16] = system: S. pneumoniae erm B + mef A genotype; conditions: S. pneumoniae erm B + mef A genotype; Gram-positive
# Method in brief: as §1
# [17] = system: S. pneumoniae mef A genotype (second strain so labelled); conditions: Gram-positive
# Method in brief: as §1
# [18] = system: S. aureus ATCC 29213; conditions: S. aureus ATCC 29213; Gram-positive
# Method in brief: as §1
# [19] = system: S. aureus erm A genotype; conditions: S. aureus erm A genotype; Gram-positive
# Method in brief: as §1
# [20] = system: E. coli TEM-1; conditions: E. coli TEM-1; Gram-negative
# Method in brief: as §1
# [21] = system: S. aureus USA600, GISA; conditions: S. aureus USA600, GISA; Gram-positive
# Method in brief: as §1
# [22] = system: E. coli ATCC 25922; conditions: E. coli ATCC 25922; Gram-negative
# Method in brief: as §1
# [23] = system: E. coli CTX-M-14; conditions: Gram-negative
# Method in brief: as §1
# [24] = system: H. influenzae ATCC49247; conditions: Gram-negative
# Method in brief: as §1
# [25] = system: S. aureus MRSA: USA100; conditions: S. aureus MRSA: USA100; Gram-positive
# Method in brief: as §1
# [26] = system: S. aureus MRSA: USA300; conditions: S. aureus MRSA: USA300; Gram-positive
# Method in brief: as §1
# [27] = system: S. pneumoniae ATCC 49619; conditions: S. pneumoniae ATCC 49619; Gram-positive
# Method in brief: as §1
# [28] = system: E. faecalis Vancomycin-resistant; conditions: E. faecalis Vancomycin-resistant; Gram-positive
Compound,MIC [1] [µg/mL],MIC [2] [µg/mL],MIC [3] [µg/mL],MIC [4] [µg/mL],MIC [5] [µg/mL],MIC [6] [µg/mL],MIC [7] [µg/mL],MIC [8] [µg/mL],MIC [9] [µg/mL],MIC [10] [µg/mL],MIC [11] [µg/mL],MIC [12] [µg/mL],MIC [13] [µg/mL],MIC [14] [µg/mL],MIC [15] [µg/mL],MIC [16] [µg/mL],MIC [17] [µg/mL],MIC [18] [µg/mL],MIC [19] [µg/mL],MIC [20] [µg/mL],other results
"CC[C@H]1OC(=O)[C@H](C)C(=O)[C@H](C)[C@@H](O[C@@H]2OC(C)CC(N(C)C)C2O)[C@](C)(OC)C[C@@H](C)C(=O)[C@H](C)[C@H]2N(CC3CC3Cn3cc(-c4cccc(N)c4)nn3)C(=O)O[C@]12C (single isomer, unassigned) [FSM-100428]",16,> 32,2,< 0.0312,< 0.0312,> 32,> 32,16,< 0.0312,> 32,16,16,> 32,> 32,32,0.0625,< 0.0312,< 0.0312,> 32,32,MIC [21]: > 32 µg/mL; MIC [22]: 32 µg/mL; MIC [23]: > 32 µg/mL; MIC [24]: 4 µg/mL; MIC [25]: > 32 µg/mL; MIC [26]: 4 µg/mL; MIC [27]: < 0.0312 µg/mL; MIC [28]: > 32 µg/mL
CC[C@H]1OC(=O)[C@@](C)(F)C(=O)[C@H](C)[C@@H](O[C@@H]2OC(C)CC(N(C)C)C2O)[C@](C)(OC)C[C@@H](C)C(=O)[C@H](C)[C@H]2N(C/C=C/Cn3nnnc3-c3ccccn3)C(=O)O[C@]12C (stereo partly shown) [FSM-100386],32,> 32,2,0.0625,< 0.0312,> 32,> 32,32,< 0.0312,> 32,> 32,8,> 32,> 32,> 32,0.25,0.0625,< 0.0312,> 32,16,MIC [21]: > 32 µg/mL; MIC [22]: 16 µg/mL; MIC [23]: > 32 µg/mL; MIC [24]: 4 µg/mL; MIC [25]: > 32 µg/mL; MIC [26]: 4 µg/mL; MIC [27]: < 0.0312 µg/mL; MIC [28]: > 32 µg/mL
CC[C@H]1OC(=O)[C@H](C)C(=O)[C@H](C)[C@@H](O[C@@H]2OC(C)CC(N(C)C)C2O)[C@](C)(OC)C[C@@H](C)C(=O)[C@H](C)[C@H]2N(C/C=C/Cn3cc(-c4cccc(N)n4)nn3)C(=O)O[C@]12C (stereo partly shown) [FSM-100364],8,> 32,0.5,< 0.0312,< 0.0312,> 32,> 32,8,< 0.0312,> 32,4,8,> 32,> 32,32,0.125,0.25,< 0.0312,> 32,> 32,MIC [21]: > 32 µg/mL; MIC [22]: 16 µg/mL; MIC [23]: > 32 µg/mL; MIC [24]: 2 µg/mL; MIC [25]: > 32 µg/mL; MIC [26]: 2 µg/mL; MIC [27]: < 0.0312 µg/mL; MIC [28]: > 32 µg/mL
CC[C@H]1OC(=O)[C@@](C)(F)C(=O)[C@H](C)[C@@H](O[C@@H]2OC(C)CC(N(C)C)C2O)[C@](C)(OC)C[C@@H](C)C(=O)[C@H](C)[C@H]2N(C/C=C/Cn3cc(-c4cnc(N)s4)nn3)C(=O)O[C@]12C (stereo partly shown) [FSM-100240],32,> 32,1,0.25,≤ 0.0312,> 32,> 32,16,≤ 0.0312,> 32,32,4,> 32,> 32,32,0.125,0.25,≤ 0.0312,> 32,32,MIC [21]: > 32 µg/mL; MIC [22]: > 32 µg/mL; MIC [23]: > 32 µg/mL; MIC [24]: 1 µg/mL; MIC [25]: > 32 µg/mL; MIC [26]: 1 µg/mL; MIC [27]: ≤ 0.0312 µg/mL; MIC [28]: 8 µg/mL
